According to PMC3677712 (Bioorganic & medicinal chemistry letters, 2013):
Read-outs that look alike come from different tables or passages of the source. Each block holds one molecule with its values, some of them ahead of it.

What was measured:
ALK2 (Q207D) = conditions: mouse model expressing a constitutively active form of ALK2 (Q207D); cited from earlier work
AMPK (AMPK-A1/B1/G1) [1] = biological target: T1, AMPK (AMPK-A1/B1/G1) (Homo sapiens, UniProt Q13131); experiment: In vitro kinase assay; type: biochemical; conditions: 10-dose, 3-fold dilution from 100 μM, 10 μM ATP
T1 sequence (Q13131 whole entry): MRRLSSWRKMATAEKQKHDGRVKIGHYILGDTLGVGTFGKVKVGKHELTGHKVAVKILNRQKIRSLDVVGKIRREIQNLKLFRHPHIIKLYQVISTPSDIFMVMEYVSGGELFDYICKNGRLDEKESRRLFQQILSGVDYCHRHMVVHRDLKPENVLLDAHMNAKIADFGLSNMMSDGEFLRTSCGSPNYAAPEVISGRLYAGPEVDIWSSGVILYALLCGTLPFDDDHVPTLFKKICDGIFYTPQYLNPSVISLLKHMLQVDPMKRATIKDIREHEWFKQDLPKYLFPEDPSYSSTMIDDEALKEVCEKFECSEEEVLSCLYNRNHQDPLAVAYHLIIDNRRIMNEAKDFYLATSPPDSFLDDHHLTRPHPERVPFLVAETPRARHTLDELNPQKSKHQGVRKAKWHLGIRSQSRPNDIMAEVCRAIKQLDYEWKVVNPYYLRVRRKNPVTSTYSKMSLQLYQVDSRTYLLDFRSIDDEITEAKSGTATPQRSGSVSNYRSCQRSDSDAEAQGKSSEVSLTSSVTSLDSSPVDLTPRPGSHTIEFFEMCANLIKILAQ
T1 sequence (Q9Y478 whole entry partner): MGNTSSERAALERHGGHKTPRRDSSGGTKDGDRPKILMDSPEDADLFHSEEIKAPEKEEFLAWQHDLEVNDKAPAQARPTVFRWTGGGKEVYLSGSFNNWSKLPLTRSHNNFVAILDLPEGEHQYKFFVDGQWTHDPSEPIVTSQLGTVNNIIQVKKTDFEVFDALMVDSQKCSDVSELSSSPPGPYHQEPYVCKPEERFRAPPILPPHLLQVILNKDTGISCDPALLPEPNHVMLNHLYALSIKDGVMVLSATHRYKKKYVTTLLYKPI
T1 sequence (P54619 whole entry partner): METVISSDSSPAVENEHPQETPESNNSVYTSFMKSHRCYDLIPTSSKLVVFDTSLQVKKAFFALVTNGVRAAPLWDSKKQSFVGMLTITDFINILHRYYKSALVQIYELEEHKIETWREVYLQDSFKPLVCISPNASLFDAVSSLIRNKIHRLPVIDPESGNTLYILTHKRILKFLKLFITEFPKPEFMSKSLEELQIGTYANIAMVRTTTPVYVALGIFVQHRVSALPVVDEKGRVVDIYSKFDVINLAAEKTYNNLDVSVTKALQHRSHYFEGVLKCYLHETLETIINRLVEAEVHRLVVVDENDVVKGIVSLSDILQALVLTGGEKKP

[2] = Intrinsic clearance in hepatic microsomes; type: in vitro ADME; conditions: human
[3] = Intrinsic clearance in hepatic microsomes; type: in vitro ADME; conditions: rat
[4] = Intrinsic clearance in hepatic microsomes; type: in vitro ADME; conditions: mouse
AMPK (AMPK-A1/B1/G1) [5] = biological target: T1, AMPK (AMPK-A1/B1/G1); conditions: reference compounds previously run in these assays; cited from earlier work
[6] = predicted from microsomal intrinsic clearance

Compound: c1ccc2c(-c3cnn4cc(-c5ccc(N6CCNCC6)cc5)cnc34)ccnc2c1 [LDN-193189, 2, LDN-193189]
effect on ectopic ossification (in words) (ALK2 (Q207D)): could blunt ectopic ossification

IC50 AMPK (AMPK (AMPK-A1/B1/G1) [1]): Inactive
CLint scaled ([2]; liver microsomes): 516 mL/min/kg
CLHEP [2, 6]: 20.2 mL/min/kg
CLint scaled ([3]; liver microsomes): 148 mL/min/kg
CLHEP [3, 6]: 47.5 mL/min/kg
CLint scaled ([4]; liver microsomes): 617 mL/min/kg
CLHEP [4, 6]: 78.5 mL/min/kg
Compound: COc1ccc(-c2cnc3c(-c4cccc5ncccc45)cnn3c2)cc1 [7g]

Compound: CC(C)Oc1ccc(-c2cnc3c(-c4ccnc5ccccc45)cnn3c2)cc1 [DMH1, 3, DMH1]
IC50 AMPK (AMPK (AMPK-A1/B1/G1) [5]): Inactive
